Data reported in patent publication US8252832B2, “Kinesin inhibitors as cancer therapeutics” (Novartis AG, priority 2007, dated 2012).
Several values for one entry are separate records, joined by “and”; a condition that tells them apart may be missing. Equal values may be shown once. Read-outs that look alike come from different tables or passages of the source. Marks after values point to notes of the source that are not given here.

Tests used:
[1] = Subcutaneous KMS-11-luc tumor xenograft model, host response; assay type: in vivo, mouse
Experimental: (§1) Experiments were performed using immunodeficient SCID-Beige female mice approximately 7-8 weeks old (Charles River Laboratories, Wilmington, Mass.). […] Routine animal care and assurance of welfare were as described above.
(§2) Compound IIa and SB-715992 (free base) were formulated in 20% Captisol for a dose volume of 8 mL/kg. Doses were adjusted to each animal's body weight.
(§3) For the efficacy evaluation in the subcutaneous tumor model, 10 million cells combined in a 1:1 mixture of HBSS and Matrigel™ were injected subcutaneously in the right flank in a total volume of […]. […] Tumor volume was calculated as (L×W2)/2. […] Data analysis was as described above.

[2] = tested on: human multiple myeloma KMS-11-luc tumor xenografts; assay: Subcutaneous KMS-11-luc tumor xenograft model, tumor response; assay type: in vivo, mouse
Experimental: as §1
Human KMS-11-luc multiple myeloma cells were obtained from the laboratory of Suzanne Trudel at the University of Toronto (Ontario, Canada) and tested to be free of Mycoplasma sp. and murine viruses in the IMPACT1 PCR assay panel (RADIL, University of Missouri, Columbia, Mo.). Prior to our receiving this cell line, it had been stably engineered to express luciferase by retroviral transfection of the pGC-gfp/luc vector. KMS-11-luc cells were grown in Iscove's medium supplemented with 2 mmol/L L-glutamine (Mediatech, Inc., Hemdon, Va.) and 10% fetal bovine serum (JRH Biosciences, catalog #12003-1000M). These cells were grown as suspension cultures, maintained at 37° C. in a humidified atmosphere containing 5% carbon dioxide. Cells were cultured for fewer than 10 passages prior to use. Cells were harvested at approximately 2 million cells/mL, and centrifuged at ˜800×g for 5 minutes at 4° C. and then resuspended in a 1:1 mixture of cold Hank's balanced salt solution (HBSS) and Matrigel™ (Mediatech Inc., catalog #21-021-CV; BD Biosciences, catalog #354234, respectively) at a concentration of 50 million cells/mL for implantation subcutaneously (injection volume of 0.2 mL). Alternatively, for the disseminated disease model, cells were prepared only in cold HBSS at a concentration of 100 million cells/mL for intravenous (i.v.) implantation via the tail vein (injection volume of 0.1 mL).
as §2, §3

[3] = q4d × 3
Experimental: Experiments were performed using outbred athymic nu/nu mice (Charles River Laboratories) approximately 6-8 weeks old. Upon arrival, animals received a subcutaneous microchip implant (AVID, Folsom, La.) in the subscapular region for identification of individuals. Animals were allowed to acclimatize for 1 week before any experimental procedures began.
Compound IIa, compound IIc, compound IIa (shown below), and SB-715992 were formulated in a Captisol®-based formulation. Doses were administered intravenously (i.v.) and adjusted to each animal's body weight. Formulations were made once at the beginning of study and stored at room temperature. Clinical grade paclitaxel was purchased pre-mixed in a cremophor-based vehicle (Mayne Pharma, now Hospira, Lake Forest, Ill., catalog #NDC-6170334209) and diluted in sterile saline to provide a dose volume of 16 mL/kg for a 30 mg/kg dose administered intraperitoneally (i.p.)
For the efficacy studies, mice were enrolled with a mean tumor volume of approximately 300 mm^3. Tumor xenografts were measured in two dimensions (L and W) with digital calipers twice weekly from the start of dosing on Day 0. Tumor volume was calculated as (L×W^2)/2. Body weights were measured twice weekly and clinical observations were recorded daily. Tumor volume and body weights were captured and stored by StudyDirector software (StudyLog, South San Francisco, Calif.).

KB8.5 tumor xenograft = KB8.5 tumor xenograft model (P-gp expressing), tumor response; assay type: in vivo, mouse; settings: q4d × 3
Experimental: Cells were cultured for fewer than 10 passages prior to use. […] All data were expressed as mean and SEM. Between-groups comparisons for final tumor measurements were performed using the one-way ANOVA pair-wise analysis. Significance was determined using Kruskal-Wallis one-way ANOVA on Ranks, followed by appropriate post-hoc test (Dunn's Method or Tukey Test) for multiple pair-wise comparisons. Statistical analysis was carried out using SigmaStat (Systat Software Inc., San Jose, Calif.).

HCT15 tumor xenograft = HCT15 tumor xenograft model, tumor response; assay type: in vivo, mouse
Experimental: (§4) Routine animal care and assurance of welfare were as described above.
Human HCT15 colon carcinoma cells were obtained from the National Cancer Institute's DCTD Tumor Repository (catalog #NCI-502711, Rockville, Md.). HCT15 cells were grown in RPMI 1640 with 2 mM L-glutamine (Mediatech Inc., catalog #15-040-CV) supplemented with 10% fetal bovine serum (JRH Biosciences, catalog #12003-1000M). The cells were tested to be free of Mycoplasma sp. and murine viruses in the IMPACT1 PCR assay panel (RADIL, University of Missouri, Columbia, Mo.)
These cells were grown as adherent cultures, maintained at 37° C. in a humidified atmosphere containing 5% carbon dioxide. Cells were cultured for fewer than 10 passages prior to use. Cells were harvested at 95% confluency, and centrifuged at ˜800×g for 5 minutes at 4° C. and then resuspended in a 1:1 ratio of HBSS (Mediatech Inc., catalog #21-021-CV) plus Matrigel™ at a concentration of 50 million cells/mL for implantation subcutaneously (injection volume of 0.2 mL).
(§5) Treatments for the efficacy studies were initiated 10 days following tumor cell implantation when tumors were approximately 300 mm^3. Compound IIa and SB-715992 were administered intravenously (i.v.) via the tail vein in a volume of 8 mL/kg at the doses indicated. Paclitaxel was administered intraperitoneally (i.p.) in a volume of 16 mL/kg at 30 mg/kg.
(§6) Tumor volume was calculated as (L×W2)/2. […] Data was analyzed as described above.

[4] = HCT15 tumor xenograft model, host response; assay type: in vivo, mouse
Experimental: as §4, §5, §6

Compound: CC(C)(C)[C@H](c1nc(-c2cc(F)ccc2F)cn1Cc1ccccc1)N(CC[C@H](N)CF)C(=O)CO [Compound IIa]
- Survival (alive/total) ([1]; 0.25 mg/kg, Q4d × 3, i.v): 9/9
- Survival (alive/total) ([1]; 0.5 mg/kg, Q4d × 3, i.v): 9/9
- Survival (alive/total) ([1]; 1 mg/kg, Q4d × 3, i.v): 8/9
- T/C, Day 31 (%) ([2]; 0.25 mg/kg, Q4d × 3, i.v): 25%
- Δ Tumor volume, Day 31 ([2]; 0.25 mg/kg, Q4d × 3, i.v): 527 ± 152 mm^3
- Max. % Regression (Day) ([2]; 0.25 mg/kg, Q4d × 3, i.v, D7): 24 (D7) %
- T/C, Day 31 (%) ([2]; 0.5 mg/kg, Q4d × 3, i.v): 10%
- Δ Tumor volume, Day 31 ([2]; 0.5 mg/kg, Q4d × 3, i.v): 221 ± 71 mm^3
- Max. % Regression (Day) ([2]; 0.5 mg/kg, Q4d × 3, i.v, D10): 42 (D10) %
- T/C, Day 31 (%) ([2]; 1 mg/kg, Q4d × 3, i.v): 0.1* %
- Δ Tumor volume, Day 31 ([2]; 1 mg/kg, Q4d × 3, i.v): 1.5 ± 26 mm^3
- Max. % Regression (Day) ([2]; 1 mg/kg, Q4d × 3, i.v, D17, listed as COMPOUND IIa): 56 (D17) %
- Max. % Regression (Day) ([2]; 1 mg/kg, Q4d × 3, i.v, D17, listed as compound IIa): 56%
- Survival (alive/total) ([3]; 5 mg/kg, i.v.): 9/9
- % Max. Δ body weight, (Day) ([3]; 5 mg/kg, i.v., D11): −2 (D11) %
- ΔT/ΔC, Day 11 (%) (KB8.5 tumor xenograft; 5 mg/kg, i.v.): 19%
- Δ Tumor volume, Day 15 (HCT15 tumor xenograft; 1.25 mg/kg, q4d × 3, i.v): 671 ± 172 mm^3
- ΔT/ΔC, Day 15 (%) (HCT15 tumor xenograft; 1.25 mg/kg, q4d × 3, i.v): 60%
- Δ Tumor volume, Day 15 (HCT15 tumor xenograft; 2.5 mg/kg, q4d × 3, i.v): 735 ± 159 mm^3
- ΔT/ΔC, Day 15 (%) (HCT15 tumor xenograft; 2.5 mg/kg, q4d × 3, i.v): 65%
- Δ Tumor volume, Day 15 (HCT15 tumor xenograft; 4.0 mg/kg, q4d × 3, i.v): 99 ± 78 mm^3
- ΔT/ΔC, Day 15 (%) (HCT15 tumor xenograft; 4.0 mg/kg, q4d × 3, i.v, listed as COMPOUND IIa): 26* %
- ΔT/ΔC, Day 15 (%) (HCT15 tumor xenograft; 4.0 mg/kg, q4d × 3, i.v, listed as compound IIa): 26%
- Survival (alive/total) ([4]; 1.25 mg/kg, q4d × 3, i.v): 9/9
- Survival (alive/total) ([4]; 2.5 mg/kg, q4d × 3, i.v): 9/9
- Survival (alive/total) ([4]; 4.0 mg/kg, q4d × 3, i.v): 9/9

Compound: CC(=O)O[C@H]1C(=O)[C@@]2(C)[C@H]([C@H](OC(=O)c3ccccc3)[C@]3(O)C[C@H](OC(=O)[C@H](O)[C@@H](NC(=O)c4ccccc4)c4ccccc4)C(C)=C1C3(C)C)[C@]1(OC(C)=O)CO[C@@H]1C[C@@H]2O [Paclitaxel, reference compound]
- Survival (alive/total) ([1]; 30 mg/kg, Q4d × 3, i.p.): 9/9
- T/C, Day 31 (%) ([2]; 30 mg/kg, Q4d × 3, i.p.): 30%
- Δ Tumor volume, Day 31 ([2]; 30 mg/kg, Q4d × 3, i.p.): 640 ± 190 mm^3
- Max. % Regression (Day) ([2]; 30 mg/kg, Q4d × 3, i.p., D3): 5 (D3) %
- Survival (alive/total) ([3]; 30 mg/kg, i.p.): 9/9
- Survival (alive/total) ([3]; Table 14 study, 30 mg/kg, i.p.): 9/9
- Survival (alive/total) ([3]; Table 15 study, 30 mg/kg, i.p.): 10/10
- ΔT/ΔC, Day 11 (%) (KB8.5 tumor xenograft; 30 mg/kg, i.p.): 78%
- ΔT/ΔC, Day 11 (%) (KB8.5 tumor xenograft; Table 14 study, 30 mg/kg, i.p.): 87%
- ΔT/ΔC, Day 11 (%) (KB8.5 tumor xenograft; Table 15 study, 30 mg/kg, i.p., not statistically different from vehicle): 60%
- Δ Tumor volume, Day 15 (HCT15 tumor xenograft; 30 mg/kg, Q4d × 3, i.p.): 703 ± 198 mm^3
- ΔT/ΔC, Day 15 (%) (HCT15 tumor xenograft; 30 mg/kg, Q4d × 3, i.p.): 104%
- Survival (alive/total) ([4]; 30 mg/kg, Q4d × 3, i.p.): 9/9

Compound: Cc1ccc(C(=O)N(CCCN)[C@@H](c2nc3cc(Cl)ccc3c(=O)n2Cc2ccccc2)C(C)C)cc1 [SB-715992, Ispinesib, reference compound]
- Survival (alive/total) ([1]; 7.5 mg/kg, Q4d × 3, i.v.): 9/9
- Max. Δ body weight (Day) ([1]; 7.5 mg/kg, Q4d × 3, i.v., D10): -0.96 ± 0.31 g
- Max. Δ body weight (Day) (%) ([1]; 7.5 mg/kg, Q4d × 3, i.v., D10): −4.8 ± 1.93%
- Δ Tumor volume, Day 31 ([2]; 7.5 mg/kg, Q4d × 3, i.v.): −46 ± 19 mm^3
- Max. % Regression (Day) ([2]; 7.5 mg/kg, Q4d × 3, i.v., D14): 49% and 49, (D14) %
- Survival (alive/total) ([3]; 15 mg/kg, i.v.): 9/9
- % Max. Δ body weight, (Day) ([3]; 15 mg/kg, i.v., D7): 4 (D7) %
- Survival (alive/total) ([3]; Table 14 study, 15 mg/kg, i.v.): 9/9
- % Max. Δ body weight, (Day) ([3]; Table 14 study, 15 mg/kg, i.v., D4): −1 (D4) %
- Survival (alive/total) ([3]; Table 15 study, 15 mg/kg, i.v.): 10/10
- % Max. Δ body weight, (Day) ([3]; Table 15 study, 15 mg/kg, i.v., D11): −3 (D11) %
- ΔT/ΔC, Day 11 (%) (KB8.5 tumor xenograft; 15 mg/kg, i.v.): 56%
- ΔT/ΔC, Day 11 (%) (KB8.5 tumor xenograft; Table 14 study, 15 mg/kg, i.v.): 77%
- ΔT/ΔC, Day 11 (%) (KB8.5 tumor xenograft; Table 15 study, 15 mg/kg, i.v., not statistically different from vehicle): 60%
- Δ Tumor volume, Day 15 (HCT15 tumor xenograft; 7.5 mg/kg, q4d × 3, i.v): 647 ± 164 mm^3
- ΔT/ΔC, Day 15 (%) (HCT15 tumor xenograft; 7.5 mg/kg, q4d × 3, i.v): 87%
- Δ Tumor volume, Day 15 (HCT15 tumor xenograft; 15 mg/kg, q4d × 3, i.v.): 491 ± 109 mm^3
- ΔT/ΔC, Day 15 (%) (HCT15 tumor xenograft; 15 mg/kg, q4d × 3, i.v.): 67%
- Survival (alive/total) ([4]; 7.5 mg/kg, q4d × 3, i.v): 9/9
- Max. Δ body weight (Day) ([4]; 7.5 mg/kg, q4d × 3, i.v, D8): 0.6 ± 0.2 g
- Max. Δ body weight (Day) (%) ([4]; 7.5 mg/kg, q4d × 3, i.v, D8): 2.6 ± 1.0%
- Survival (alive/total) ([4]; 15 mg/kg, q4d × 3, i.v.): 9/9
- Max. Δ body weight (Day) ([4]; 15 mg/kg, q4d × 3, i.v, D10): -1.2 ± 0.4 g
